US20070238755A1, “Methods to treat and/or prevent radiation- and/or chemical-induced toxicity in non-malignant tissue” (priority 2005, published 2007)

How the values were obtained:
Type in all cases: in vivo, male Sprague-Dawley rats
[1] = tested on: irradiated rats (locally irradiated scrotal hernia containing a loop of distal ileum); assay: Morphometry of irradiated intestine, intestinal fibrosis Experiment 1; details: trend is worded for vehicle-treated animals as compared to Formula 2-treated animals
Text: (§1) A particularly relevant animal model for radiation toxicity is described in Wang et al., J Thromb Haemost, 2(11):2027-2035 (2004)). In brief, a “scrotal hernia” containing a 4 cm loop of distal ileum is surgically created in male Sprague-Dawley rats. After a 3 week recovery period, the scrotal hernia is irradiated locally without exposing the rest of the animal to ionizing radiation.
(§2) Scrotal hernias were created in rats which subsequently received one of three different treatments subcutaneously: (i) vehicle control (i.e., 0.4% methyl cellulose); (ii) 10 mg/kg/day of Formula 2; and (iii) 15 mg/kg/day of Formula 2. The treatments were administered for 24 days total, starting the day before irradiation (i.e., from Day-1 to Day 23). […] After an additional 2 week observation period following treatment, the rats were euthanized and assessed for radiation toxicity using these endpoints: structural radiation injury, immunohistochemistry (e.g., neutrophil infiltration, collagen type III deposition, smooth muscle cell proliferation, extracellular matrix-associated TGF-β immunoreactivity, collagen type I deposition, macrophages (ED-2)), and morphomety.
The thickness of the intestinal wall proper (submucosa, muscularis externa, and subserosa, but excluding the mucosa) was measured with an eyepiece linear microruler. […]

[2] = tested on: irradiated rats (locally irradiated scrotal hernia containing a loop of distal ileum); assay: Quantitative immunohistochemistry of irradiated intestine, intestinal fibrosis Experiment 1
Text: as §1
Scrotal hernias were created in rats which subsequently received one of three different treatments subcutaneously: (i) vehicle control (i.e., 0.4% methyl cellulose); (ii) 10 mg/kg/day of Formula 2; and (iii) 15 mg/kg/day of Formula 2. The treatments were administered for 24 days total, starting the day before irradiation (i.e., from Day-1 to Day 23). Beginning on Day 1, the scrotal hernia of each animal was irradiated locally by exposure to 5 Gy for 9 days. After an additional 2 week observation period following treatment, the rats were euthanized and assessed for radiation toxicity using these endpoints: structural radiation injury, immunohistochemistry (e.g., neutrophil infiltration, collagen type III deposition, smooth muscle cell proliferation, extracellular matrix-associated TGF-β immunoreactivity, collagen type I deposition, macrophages (ED-2)), and morphomety.
Quantitative immunohistochemistry was used to determine: (i) neutrophil infiltration by mycloperoxidase stalninig; (ii) intestinal smooth muscle cell proliferation using proliferation cell nuclear antigen (PCNA) labeling index; (iii) collagen deposition by staining for collagen types I and III; (iv) extracellular matrix-associated transforming growth factor (TGF)-β, and (v) macrophage ED-2. Immunohistochemical staining was performed with appropriate positive and negative controls using the avidin-biotin complex (ABC) technique previously described by Wang et al., J Thromb Haemost, 2(11):2027-2035 (2004). Primary antibodies, catalog numbers, incubation times, dilutions, and companies were: polyclonal antimyeloperoxidase antibody (A0398, 2 h, 1:100; Dako, Carpinteria, Calif., USA); monoclonal anti-PCNA antibody (NA03, 2 h, 1:100; Calbiochem, Cambridge, Mass., USA); polyclonal antibodies against collagen type I (1310-01, 2 h, 1:100 dilution; Southern Biotechnology Associates, Birmingham, Alab., USA); collagen type III (1330-01, 2 h, 1:100 dilution, Southern Biotechnology Associates); polyclonal rabbit anti-TGF-P antibody (AB-100-NA, 2 h, 1:300 dilution; R&D, Minneapolis, Minn., USA); and ED-2 (MCA342, 2 h, 1:100 dilution, Serotec, Rahway, N.C., USA).
Computerized image analysis was performed as previously described (see, Wang et al., Thromb Haemost, 87(1):122-128(2002); Wang et al., J Pharmacol Exp Ther, 297(1):35-42 (2001)). Neutrophil infiltration was assayed by identifying myeloperoxidase-positive cells as previously described (see, Wang et al., Thromb Haemost, 87(1):122-128(2002)). Areas positive for collagen types I and III deposition were measured as previously described 'see, Raviv et al., World J Urol, 15(l1):50-55 (1997); and Wang et al., Thromb Haemost, 87(1):122-128(2002)). Extracellular matrix-associated TGF-β immunoreactivity was measured as previously described (see, Richter et al., Radiother Oncol, 39(3):243-251 (1996)).
Differences in endpoints as a function of drug treatment (PAR-1 inhibitor vs. vehicle) were assessed using fixed-factor analysis of variance and post hoc comparisons with Newman-Keul's test (NCSS2000 for Windows 95, NCSS, Kaysville, Utah, USA). Univariate comparisons were performed with the Mann-Whitney U-test using StatXact 5 (Cytel Software, Cambridge, Mass., USA), a software package for exact non-parametric inference.

[3] = tested on: irradiated rats (locally irradiated scrotal hernia containing a loop of distal ileum); assay: Structural radiation injury (Radiation Injury Score) in the scrotal hernia intestinal fibrosis model, Experiment 1; details: 10 or 15 mg/kg/day s.c. for 24 days (Day -1 to Day 23); 5 Gy for 9 days; compared to vehicle; p=0.003 Jonckheere-Terpstra test; FIG. 1
Text: as §1
as §2, with “2.” for “2. The treatments were administered for 24 days total, starting the day before irradiation (i.e., from Day-1 to Day 23).”
Structural radiation injury was assessed in hematoxylin-eosin-stained sections using a radiation injury score system previously described (see, Langberg et al., Acta Oncol, 31(7):781-787 (1992); and Hauer-Jensen et al., Acta Radiol Oncol, 22(4):299-303 (1983)). […]

[4] = trend is worded for vehicle-treated animals as compared to Formula 2-treated animals, p=0.4 Jonckheere-Terpstra test

CCOC(=O)N[C@@H]1CC[C@@H]2[C@@H](C1)C[C@H]1C(=O)O[C@H](C)[C@H]1[C@H]2/C=C/c1ccc(-c2ccccn2)cn1 [Formula 2]
intestinal wall thickening (thickness of the intestinal wall proper) ([1]; p=0.2 Jonckheere-Terpstra test): trend toward intestinal wall thickening in vehicle-treated animals
serosal thickening ([1]; p=0.3 Jonckheere-Terpstra test): trend toward serosal thickening in vehicle-treated animals
collagen type III deposition ([2]; 10 or 15 mg/kg/day s.c. for 24 days, 5 Gy for 9 days, compared to vehicle, p=0.005 Jonckheere-Terpstra test, FIG. 3): reduced
smooth muscle cell proliferation (PCNA positive cells) ([2]; 10 or 15 mg/kg/day s.c. for 24 days, 5 Gy for 9 days, compared to vehicle, p=0.04 Jonckheere-Terpstra test, FIG. 4): reduced
neutrophil infiltration (myeloperoxidase-positive cells) ([2]; 10 or 15 mg/kg/day s.c. for 24 days, 5 Gy for 9 days, compared to vehicle, p=0.05 Jonckheere-Terpstra test, FIG. 2): reduced
extracellular matrix-associated TGF-β immunoreactivity ([2]; trend is worded for vehicle-treated animals as compared to Formula 2-treated animals, p=0.1 Jonckheere-Terpstra test): trend toward increased levels
collagen type I deposition [2, 4]: trend toward increased levels
macrophages (ED-2) [2, 4]: trend toward increased levels
structural radiation injury as measured by Radiation Injury Score [3]: less
